Data: patent publication EP4467141A1, “PYRAZOLO-QUINOLINES AS SELECTIVE INHIBITORS OF GENOTOXIC STRESS-INDUCED IKK/NF- KB PATHWAYS FOR CANCER THERAPY” (Max-Delbrück-Centrum für Molekulare Medizin in der …, priority 2023, dated 2024)

Columns and labels:
Assay in all cases: Kinase panel study
Type in all cases: biochemical
Settings in all cases: read-out: Percentage of inhibition; for inhibition at 1 µM: 1000nM; for inhibition at 10 µM: 10000nM
[1] = target: T1, CSNK1G1 (CK1 gamma 1) (Homo sapiens, UniProt Q9HCP0)
T1 construct: purchased Thermo Fisher Scientific
Outline: (§1)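 Percent inhibition of each kinase by the test compound, given at either 1 µM or 10 µM, came from a contracted panel run by ZLyte or Adapta protocol.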

[2] = target: T2, TEK (TIE2) Y897S (Homo sapiens, UniProt Q02763, Y897S)
T2 construct: purchased Thermo Fisher Scientific
T2 sequence (Q02763 23-1124 Y897S): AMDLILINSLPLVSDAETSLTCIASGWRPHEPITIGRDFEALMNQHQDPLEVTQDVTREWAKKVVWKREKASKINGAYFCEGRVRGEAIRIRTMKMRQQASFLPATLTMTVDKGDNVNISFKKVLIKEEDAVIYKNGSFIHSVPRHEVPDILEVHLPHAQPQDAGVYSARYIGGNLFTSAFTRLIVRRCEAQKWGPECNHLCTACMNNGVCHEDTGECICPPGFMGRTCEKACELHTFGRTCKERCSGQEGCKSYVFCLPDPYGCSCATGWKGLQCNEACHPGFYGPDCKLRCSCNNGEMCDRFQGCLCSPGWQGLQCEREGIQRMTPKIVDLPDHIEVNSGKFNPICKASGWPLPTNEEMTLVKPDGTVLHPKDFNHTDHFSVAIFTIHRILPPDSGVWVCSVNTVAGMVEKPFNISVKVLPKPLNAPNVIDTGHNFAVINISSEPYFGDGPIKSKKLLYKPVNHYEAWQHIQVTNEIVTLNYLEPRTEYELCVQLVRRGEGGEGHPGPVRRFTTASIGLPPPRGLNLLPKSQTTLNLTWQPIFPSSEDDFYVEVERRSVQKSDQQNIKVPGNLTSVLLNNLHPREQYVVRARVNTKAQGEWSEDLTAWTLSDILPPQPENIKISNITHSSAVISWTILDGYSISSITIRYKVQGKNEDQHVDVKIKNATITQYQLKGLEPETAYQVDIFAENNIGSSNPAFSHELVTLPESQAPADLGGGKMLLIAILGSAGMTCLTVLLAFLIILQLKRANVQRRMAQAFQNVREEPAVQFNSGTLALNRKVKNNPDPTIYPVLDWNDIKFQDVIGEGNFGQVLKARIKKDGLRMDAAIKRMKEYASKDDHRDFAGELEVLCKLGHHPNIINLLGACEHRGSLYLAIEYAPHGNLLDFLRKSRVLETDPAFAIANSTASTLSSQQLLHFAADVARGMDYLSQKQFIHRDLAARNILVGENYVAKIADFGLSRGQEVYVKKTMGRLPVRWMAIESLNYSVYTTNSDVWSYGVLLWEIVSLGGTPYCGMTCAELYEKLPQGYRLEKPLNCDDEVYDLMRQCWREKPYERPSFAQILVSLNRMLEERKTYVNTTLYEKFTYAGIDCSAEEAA
Outline: as §1

[3] = target: T3, PDGFRA D842V (Homo sapiens, UniProt P16234, D842V)
T3 construct: purchased Thermo Fisher Scientific
T3 sequence (P16234 24-1089 D842V): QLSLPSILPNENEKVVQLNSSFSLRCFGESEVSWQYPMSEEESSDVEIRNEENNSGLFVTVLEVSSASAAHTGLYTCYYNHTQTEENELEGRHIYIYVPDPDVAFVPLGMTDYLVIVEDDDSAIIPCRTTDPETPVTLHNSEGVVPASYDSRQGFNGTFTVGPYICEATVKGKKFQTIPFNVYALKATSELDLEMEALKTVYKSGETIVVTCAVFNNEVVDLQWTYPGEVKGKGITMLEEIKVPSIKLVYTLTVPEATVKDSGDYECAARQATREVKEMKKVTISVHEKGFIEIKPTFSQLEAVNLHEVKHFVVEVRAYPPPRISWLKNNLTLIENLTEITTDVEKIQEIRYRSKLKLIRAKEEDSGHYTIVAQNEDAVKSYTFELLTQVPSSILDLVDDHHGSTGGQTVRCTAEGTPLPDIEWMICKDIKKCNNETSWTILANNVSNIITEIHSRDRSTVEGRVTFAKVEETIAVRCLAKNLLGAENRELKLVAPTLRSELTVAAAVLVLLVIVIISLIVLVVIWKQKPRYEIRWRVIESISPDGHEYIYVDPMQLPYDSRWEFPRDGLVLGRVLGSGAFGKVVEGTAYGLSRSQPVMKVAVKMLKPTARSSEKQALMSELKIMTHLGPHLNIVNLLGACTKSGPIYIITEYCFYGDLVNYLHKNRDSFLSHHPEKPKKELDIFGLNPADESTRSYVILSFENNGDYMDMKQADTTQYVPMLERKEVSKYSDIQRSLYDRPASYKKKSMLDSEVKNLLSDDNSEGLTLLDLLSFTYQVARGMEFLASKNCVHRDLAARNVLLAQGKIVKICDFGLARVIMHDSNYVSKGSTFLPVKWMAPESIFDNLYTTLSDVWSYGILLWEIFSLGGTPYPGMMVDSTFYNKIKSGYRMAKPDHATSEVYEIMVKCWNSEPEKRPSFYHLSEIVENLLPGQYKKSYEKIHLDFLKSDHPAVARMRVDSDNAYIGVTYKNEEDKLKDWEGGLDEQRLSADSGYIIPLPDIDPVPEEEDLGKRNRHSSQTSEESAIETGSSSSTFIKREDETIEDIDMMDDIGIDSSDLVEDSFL
Outline: as §1

[4] = target: T4, MET M1250T (Homo sapiens, UniProt P08581, M1250T)
T4 construct: purchased Thermo Fisher Scientific
T4 sequence (P08581 25-1390 M1250T): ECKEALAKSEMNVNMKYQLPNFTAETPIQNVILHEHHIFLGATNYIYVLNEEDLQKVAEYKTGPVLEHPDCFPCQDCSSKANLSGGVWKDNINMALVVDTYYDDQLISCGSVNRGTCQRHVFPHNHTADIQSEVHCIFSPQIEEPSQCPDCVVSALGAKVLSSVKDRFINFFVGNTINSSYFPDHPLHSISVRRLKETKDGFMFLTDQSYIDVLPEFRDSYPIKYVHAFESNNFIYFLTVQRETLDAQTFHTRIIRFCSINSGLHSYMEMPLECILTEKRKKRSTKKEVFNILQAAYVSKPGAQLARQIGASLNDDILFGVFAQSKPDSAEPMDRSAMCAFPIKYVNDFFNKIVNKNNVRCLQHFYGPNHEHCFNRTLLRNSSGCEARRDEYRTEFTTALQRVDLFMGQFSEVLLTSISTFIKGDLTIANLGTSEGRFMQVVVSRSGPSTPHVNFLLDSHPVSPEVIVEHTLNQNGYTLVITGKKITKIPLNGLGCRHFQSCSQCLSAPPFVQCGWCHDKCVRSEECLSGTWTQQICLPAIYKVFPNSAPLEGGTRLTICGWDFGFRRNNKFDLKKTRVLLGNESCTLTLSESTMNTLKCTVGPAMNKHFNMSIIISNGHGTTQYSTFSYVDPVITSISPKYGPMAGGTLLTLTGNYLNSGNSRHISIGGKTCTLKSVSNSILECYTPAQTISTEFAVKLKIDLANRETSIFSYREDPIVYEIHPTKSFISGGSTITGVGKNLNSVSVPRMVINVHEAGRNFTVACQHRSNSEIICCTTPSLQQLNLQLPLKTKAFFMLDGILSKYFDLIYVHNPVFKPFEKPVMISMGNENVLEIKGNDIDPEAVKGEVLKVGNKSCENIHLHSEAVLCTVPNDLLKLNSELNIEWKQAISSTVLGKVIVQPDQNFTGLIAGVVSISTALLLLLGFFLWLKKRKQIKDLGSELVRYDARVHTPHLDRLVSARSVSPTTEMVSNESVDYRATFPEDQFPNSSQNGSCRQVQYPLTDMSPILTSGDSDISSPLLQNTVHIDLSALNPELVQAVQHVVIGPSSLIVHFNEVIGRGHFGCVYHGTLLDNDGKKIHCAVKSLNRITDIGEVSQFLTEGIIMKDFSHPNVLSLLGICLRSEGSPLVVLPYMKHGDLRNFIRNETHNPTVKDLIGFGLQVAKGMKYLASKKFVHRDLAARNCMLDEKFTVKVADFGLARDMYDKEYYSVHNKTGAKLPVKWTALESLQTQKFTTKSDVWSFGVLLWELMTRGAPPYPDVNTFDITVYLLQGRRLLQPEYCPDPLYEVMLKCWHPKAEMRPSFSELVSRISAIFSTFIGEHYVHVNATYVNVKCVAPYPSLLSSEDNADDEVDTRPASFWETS
Outline: as §1

[5] = target: T5, SBK1 (Homo sapiens, UniProt Q52WX2)
T5 construct: purchased Thermo Fisher Scientific
T5 sequence (Q52WX2 whole entry): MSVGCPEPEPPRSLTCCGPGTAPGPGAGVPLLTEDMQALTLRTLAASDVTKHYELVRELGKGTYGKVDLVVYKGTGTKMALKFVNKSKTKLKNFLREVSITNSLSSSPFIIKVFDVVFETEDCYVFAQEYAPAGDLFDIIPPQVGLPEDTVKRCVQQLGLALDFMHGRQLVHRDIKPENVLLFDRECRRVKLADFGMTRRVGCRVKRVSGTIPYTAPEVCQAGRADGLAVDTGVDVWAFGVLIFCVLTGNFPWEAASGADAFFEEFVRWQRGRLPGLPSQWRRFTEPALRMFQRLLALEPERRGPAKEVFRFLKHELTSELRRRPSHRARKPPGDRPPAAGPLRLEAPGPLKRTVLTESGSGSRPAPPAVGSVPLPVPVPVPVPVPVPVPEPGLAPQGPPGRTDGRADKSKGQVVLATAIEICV
Outline: as §1

[6] = target: T6, CHEK1 (CHK1) (Homo sapiens, UniProt O14757)
T6 construct: purchased Thermo Fisher Scientific
T6 sequence (O14757 1-476): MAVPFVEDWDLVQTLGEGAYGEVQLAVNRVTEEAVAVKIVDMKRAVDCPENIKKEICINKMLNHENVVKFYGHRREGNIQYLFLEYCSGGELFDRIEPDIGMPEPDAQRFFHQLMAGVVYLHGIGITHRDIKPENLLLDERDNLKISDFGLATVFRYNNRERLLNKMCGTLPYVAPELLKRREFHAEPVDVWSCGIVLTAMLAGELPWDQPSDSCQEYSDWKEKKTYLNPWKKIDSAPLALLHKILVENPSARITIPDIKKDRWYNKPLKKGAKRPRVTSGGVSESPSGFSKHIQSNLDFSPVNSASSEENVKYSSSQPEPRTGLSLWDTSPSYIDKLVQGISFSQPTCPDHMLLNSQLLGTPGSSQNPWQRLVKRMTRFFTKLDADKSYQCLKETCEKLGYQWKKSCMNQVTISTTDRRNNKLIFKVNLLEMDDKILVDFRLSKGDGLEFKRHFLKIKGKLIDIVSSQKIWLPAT
Outline: as §1

[7] = target: T7, KIT V560G (Homo sapiens, UniProt P10721, V560G)
T7 construct: purchased Thermo Fisher Scientific
Outline: as §1

[8] = target: T8, ABL1 G250E (Homo sapiens, UniProt P00519, G250E)
T8 construct: purchased Thermo Fisher Scientific
Outline: as §1

[9] = target: T9, PRKX (Homo sapiens, UniProt P51817)
T9 construct: purchased Thermo Fisher Scientific
T9 sequence (P51817 1-358): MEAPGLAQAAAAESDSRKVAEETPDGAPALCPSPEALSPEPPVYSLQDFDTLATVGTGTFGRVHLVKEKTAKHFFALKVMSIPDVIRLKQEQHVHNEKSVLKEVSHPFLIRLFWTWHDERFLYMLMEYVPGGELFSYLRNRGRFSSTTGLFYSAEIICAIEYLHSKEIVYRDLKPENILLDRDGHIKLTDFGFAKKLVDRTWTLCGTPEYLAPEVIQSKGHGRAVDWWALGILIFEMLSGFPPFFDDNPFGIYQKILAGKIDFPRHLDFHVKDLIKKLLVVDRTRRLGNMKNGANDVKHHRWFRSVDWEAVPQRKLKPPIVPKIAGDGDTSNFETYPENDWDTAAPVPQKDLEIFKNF
Outline: as §1

[10] = target: T10, AURKA (Aurora A) (Homo sapiens, UniProt O14965)
T10 construct: purchased Thermo Fisher Scientific
T10 sequence (O14965 1-403): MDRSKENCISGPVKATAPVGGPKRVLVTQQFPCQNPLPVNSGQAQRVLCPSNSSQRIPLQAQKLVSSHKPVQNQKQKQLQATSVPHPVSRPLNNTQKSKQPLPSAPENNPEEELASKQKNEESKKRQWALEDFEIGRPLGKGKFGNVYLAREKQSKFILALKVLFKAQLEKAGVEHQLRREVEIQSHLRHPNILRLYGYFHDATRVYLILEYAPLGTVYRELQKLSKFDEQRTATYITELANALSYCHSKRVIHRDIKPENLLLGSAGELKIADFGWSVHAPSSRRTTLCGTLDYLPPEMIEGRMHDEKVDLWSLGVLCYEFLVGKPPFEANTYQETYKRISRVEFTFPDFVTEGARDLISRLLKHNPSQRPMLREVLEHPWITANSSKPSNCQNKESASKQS
Outline: as §1

[11] = target: T11, LTK (TYK1) (Homo sapiens, UniProt P29376)
T11 construct: purchased Thermo Fisher Scientific
Outline: as §1

[12] = target: T12, CDK18/cyclin Y (Homo sapiens, UniProt Q07002)
T12 construct: purchased Thermo Fisher Scientific
T12 sequence (Q07002 whole entry): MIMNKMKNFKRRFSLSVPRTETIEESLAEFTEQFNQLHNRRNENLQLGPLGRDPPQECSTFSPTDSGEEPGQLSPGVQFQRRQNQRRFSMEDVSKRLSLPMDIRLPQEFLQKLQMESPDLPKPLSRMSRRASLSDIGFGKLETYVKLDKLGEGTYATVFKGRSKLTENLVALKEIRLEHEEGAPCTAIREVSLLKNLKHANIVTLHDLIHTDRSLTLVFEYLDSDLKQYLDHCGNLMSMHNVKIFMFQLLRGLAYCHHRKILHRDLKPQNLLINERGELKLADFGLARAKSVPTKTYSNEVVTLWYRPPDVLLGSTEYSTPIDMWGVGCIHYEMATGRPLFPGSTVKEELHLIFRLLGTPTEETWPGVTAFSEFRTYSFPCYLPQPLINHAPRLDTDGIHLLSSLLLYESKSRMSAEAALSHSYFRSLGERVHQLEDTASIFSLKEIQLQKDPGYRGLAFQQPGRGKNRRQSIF
T12 sequence (Q8ND76 whole entry partner): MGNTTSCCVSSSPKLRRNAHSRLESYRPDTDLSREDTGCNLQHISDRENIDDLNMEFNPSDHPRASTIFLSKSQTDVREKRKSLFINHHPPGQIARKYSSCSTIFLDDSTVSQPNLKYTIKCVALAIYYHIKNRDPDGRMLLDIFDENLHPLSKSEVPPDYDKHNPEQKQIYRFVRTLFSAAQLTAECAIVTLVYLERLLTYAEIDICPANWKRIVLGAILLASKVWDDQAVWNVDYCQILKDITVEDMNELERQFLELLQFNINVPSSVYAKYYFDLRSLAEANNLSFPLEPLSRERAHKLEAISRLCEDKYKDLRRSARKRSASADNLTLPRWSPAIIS
Outline: as §1

Structure (SMILES)	inhibition at 1 µM [1] [%]	inhibition at 10 µM [1] [%]	inhibition at 1 µM [2] [%]	inhibition at 10 µM [2] [%]	inhibition at 1 µM [3] [%]	inhibition at 10 µM [3] [%]	inhibition at 1 µM [4] [%]	inhibition at 10 µM [4] [%]	inhibition at 1 µM [5] [%]	inhibition at 10 µM [5] [%]	inhibition at 1 µM [6] [%]	inhibition at 10 µM [6] [%]	inhibition at 1 µM [7] [%]	inhibition at 10 µM [7] [%]	inhibition at 1 µM [8] [%]	inhibition at 10 µM [8] [%]	inhibition at 1 µM [9] [%]	inhibition at 10 µM [9] [%]	inhibition at 1 µM [10] [%]	inhibition at 10 µM [10] [%]	also measured
COc1ccc2c(c1OC)c(=O)n1c3ccc(O)cc3c3ccnc2c31 [MW01, 5-Hydroxy-10,11-dimethoxy-9H-benzo[c]indolo[3,2,1-ij][1,5]naphthyridin-9-one]	5	12	-14	-10	3	35	19	42	3	3	4	13	12	7	9	32	22	16	8	18	inhibition at 1 µM [11]: 19%; inhibition at 10 µM [11]: 44%; inhibition at 1 µM [12]: 5%; inhibition at 10 µM [12]: 15%
COc1ccc2cc3c(N)nn(C(=O)c4cccc(N(C)C)c4)c3nc2c1 [MW05, (3-Amino-7-methoxypyrazolo[3,4-b]quinolin-1-yl)-[3-(dimethylamino)phenyl]methanone]	3	6	-18	-11	-4	-2	1	-15	-7	-26	16	27	11	2	12	0	8	-2	7	-5	inhibition at 1 µM [11]: 7%; inhibition at 10 µM [11]: -9%; inhibition at 1 µM [12]: 13%; inhibition at 10 µM [12]: 55%
